Test results taken from US20070043010A1, “Quinazoline derivatives” (ASTRAZENECA UK LIMITED, priority 2003, published 2007).

test system: KB cells; experiment: EGFR driven KB cell proliferation assay, Test (b); type: cell-based; settings: Homo sapiens, 96 h, EGF 1 ng/ml, 4 days, MTT
Description: This assay measures the ability of a test compound to inhibit the proliferation of KB cells (human naso-pharangeal carcinoma obtained from the American Type Culture Collection (ATCC).
KB cells (human naso-pharangeal carcinoma obtained from the ATCC were cultured in Dulbecco's modified Eagle's medium (DMEM) containing 10% foetal calf serum, 2 mM glutamine and non-essential amino acids at 37° C. in a 7.5% CO2 air incubator. Cells were harvested from the stock flasks using Trypsin/ethylaminediaminetetraacetic acid (EDTA). Cell density was measured using a haemocytometer and viability was calculated using trypan blue solution before being seeded at a density of 1.25×10^3 cells per well of a 96 well plate in DMEM containing 2.5% charcoal stripped serum, 1 mM glutamine and non-essential amino acids at 37° C. in 7.5% CO2 and allowed to settle for 4 hours.
Following adhesion to the plate, the cells are treated with or without EGF (final concentration of 1 ng/ml) and with or without compound at a range of concentrations in dimethylsulfoxide (DMSO) (0.1% fial) before incubation for 4 days. Following the incubation period, cell numbers were determined by addition of 50 μl of 3-(4,5-Dimethylthiazol-2-yl)-2,5-diphenyltetrazolium bromide (MTT) (stock 5 mg/ml) for 2 hours. MTT solution was then tipped off, the plate gently tapped dry and the cells dissolved upon the addition of 100 μl of DMSO.
Absorbance of the solubilised cells was read at 540 nm using a Molecular Devices ThermoMax microplate reader. Inhibition of proliferation was expressed as an IC50 value. This was determined by calculation of the concentration of compound that was required to give 50% inhibition of proliferation. The range of proliferation was calculated from the positive (vehicle plus EGF) and negative (vehicle minus EGF) control values.

| IC50 | SMILES |
| --- | --- |
| 63 nM | COc1cc2ncnc(Nc3cccc(Cl)c3F)c2cc1O[C@@H]1C[C@@H](C(=O)NCCC#N)N(C)C1 [Compound 13-3] |
| 139 nM | COc1cc2ncnc(Nc3cccc(Cl)c3F)c2cc1O[C@H]1C[C@H](C(=O)N[C@H]2COC[C@@H]2O)N(C)C1 [Compound 11-14, (4S)-4-({4-[(3-chloro-2-fluorophenyl)amino]-7-methoxyquinazolin-6-yl}oxy)-N-[(3S,4R)-4-hydroxytetrahydrofuran-3-yl]-1-methyl-D-prolinamide] |
| 144 nM | COc1cc2ncnc(Nc3cccc(Cl)c3F)c2cc1O[C@H]1C[C@H](C(=O)NCCNC(C)=O)N(C)C1 [Compound 11-13, (4S)—N-[2-(acetylamino)ethyl]-4-({4-[(3-chloro-2-fluorophenyl)amino]-7-methoxyquinazolin-6-yl}oxy)-1-methyl-D-prolinamide] |
